Article PMC6024615, “Effect of Biliary Drainage on the Toxicity and Toxicokinetics of Amanita exitialis in Beagles” (Toxins, 2018)

Experiments:
[1] = Peptide toxins in the urine of beagles with biliary drainage; type: in vivo, beagle dogs; settings: for Total (accumulated) amount excreted in urine / percentage of total urine excretion, Total: 0–4 days
Description: (§1) The study was approved by National Institute of Occupational Health and Poison Control review board for animal experiments. Twenty-four male beagles (age, 8–10 months; weight, 10 ± 1 kg) were obtained from Beijing Institute of Xieerxin Biology Resource (Beijing, China). They were randomly divided into four groups of six animals each: control, biliary drainage, and 20 and 60 mg/kg with biliary drainage groups. The biliary drainage operation was conducted in all groups barring the control group. The dogs were dressed in homemade underwear, coats, and Elizabeth circles for a week to ensure pre-experimental acclimatization (Figure S8a–c). After determining the baseline values for biochemical indicators, the dogs were fasted for 24 h but received water ad libitum. They were anesthetized by intravenous administration of pentobarbital sodium (3%, 1 mL/kg) during the surgery. A temperature of 38–39 °C was maintained with a warming mat. After skin preservation and sterilization, the abdominal cavity was opened through the central abdomen. The abdomen was explored and blunt dissection of the common bile duct was performed (Figure S8d). The common bile duct and its branches were ligated from the intestinal side. A 7.0-Fr drainage catheter (COOK, Bloomington, IN, USA) was percutaneously inserted into the gallbladder, and a medical drainage bag was connected to the drainage catheter coming out of the abdominal cavity. Each opened layer, including the peritoneum, abdominal wall muscle, and skin, was closed with suture. The operative incision was protected with sterile gauze and a bandage, and the dogs were dressed in homemade underwear, coats, and Elizabeth circles. The drainage bag was placed in the pocket of the coat (Figure S8e). After the anesthetic wore off, the dogs were placed in cages, and food and water were provided ad libitum. The operative incision was sterilized with iodophor twice a day until stitches were removed six days after surgery. The drainage bag was replaced every day. On the eighth day after surgery, the 20 and 60 mg/kg with biliary drainage groups were orally administered a lyophilized powder of Amanita exitialis in starch capsules. In control and bile drainage group, the beagle dogs were fed with empty capsules. Immediately after dosing, the animals were placed in their cages, and food and water were provided ad libitum. Dogs were sacrificed with an overdose of sodium pentobarbital at the end of the experiment. All procedures were performed according to the ethical standards of the National Institutes of Health Guide for Animal Welfare and approved by the Institutional Animal Care and Use Committee (EAWE-2017-005).
(§2) Peptide toxins in blood and urine samples were analyzed as described previously. Bile samples from Days 0–1, Days 1–2, Days 2–3, and Days 3–4 were collected and stored in medical drainage bags and the bile volume was recorded. Plasma and urine samples were stored at 2–8 °C until analysis for peptide toxins.
(§3) UPLC and MS/MS parameters were as described in our previous study. The limit of detection and limit of quantitation of each toxin in the bile were 0.03 mg/kg and 0.5 mg/kg, respectively.

[2] = Peptide toxins in the bile of beagles with biliary drainage; type: in vivo, beagle dogs; settings: for Accumulated amounts excreted in bile / percentage of total bile excretion, Accumulated amounts: 0–4 days; for ratio of peptide toxins in bile to excretion in urine and bile: mean ± SD
Description: as §1, §2
α-Amanitin, β-amanitin, γ-amanitin, and phallacidin were used as the standard reference materials. Aliquots (0.2 mL) of bile samples were transferred into 2-mL polypropylene centrifuge tubes in duplicates. Next, 1 mL of acetonitrile was added to each tube. After vortex-mixing for 1 min, each sample was sonicated for 30 min and centrifuged at 11,200× g for 10 min at 4 °C. The supernatants were loaded on solid-phase extraction columns (Oasis PRiME HLB, 60 mg, 3 cc). The columns were then washed with 3 mL of methanol/ultrapure water (v/v: 5/95). The eluent was evaporated in a stream of nitrogen at room temperature. The dry residue was dissolved in 0.2 mL of ultrapure water and analyzed by UPLC-ESI-MS/MS.
as §3

[3] = 0-1 d, 20 mg/kg with biliary drainage group
[4] = 0-1 d, 60 mg/kg with biliary drainage group
[5] = 0–1 days, 20 mg/kg with biliary drainage group
[6] = 0–1 days, 60 mg/kg with biliary drainage group
[7] = 20 mg/kg with biliary drainage group
[8] = 60 mg/kg with biliary drainage group
[9] = 1-2 d, 20 mg/kg with biliary drainage group
[10] = 1-2 d, 60 mg/kg with biliary drainage group
[11] = 1–2 days, 20 mg/kg with biliary drainage group
[12] = 1–2 days, 60 mg/kg with biliary drainage group
[13] = 2-3 d, 20 mg/kg with biliary drainage group
[14] = 2-3 d, 60 mg/kg with biliary drainage group
[15] = 2–3 days, 20 mg/kg with biliary drainage group
[16] = 2–3 days, 60 mg/kg with biliary drainage group
[17] = 3-4d, 20 mg/kg with biliary drainage group
[18] = 3-4d, 60 mg/kg with biliary drainage group
[19] = 3–4 days, 20 mg/kg with biliary drainage group
[20] = 3–4 days, 60 mg/kg with biliary drainage group

CC[C@H](C)[C@@H]1NC(=O)CNC(=O)[C@@H]2Cc3c([nH]c4cc(O)ccc34)[S@+]([O-])C[C@H](NC(=O)CNC1=O)C(=O)N[C@@H](CC(=O)O)C(=O)N1C[C@H](O)C[C@H]1C(=O)N[C@@H]([C@@H](C)[C@@H](O)CO)C(=O)N2 [β-amanitin]
detection rate of peptide toxins in urine [1, 3]: 100%
detection rate of peptide toxins in urine [1, 4]: 100%
daily amount excreted in urine [1, 5]: 0.0050 mg
percentage of total urine excretion excreted daily ([1]; 0–1 days, 20 mg/kg with biliary drainage group, 20 mg/kg): more than 90%
percentage of total urine excretion excreted daily ([1]; 0–1 days, 20 mg/kg with biliary drainage group, listed as β-Amanitin, 20 mg/kg): 93.9%
daily amount excreted in urine [1, 6]: 0.0065 mg
percentage of total urine excretion excreted daily ([1]; 0–1 days, 60 mg/kg with biliary drainage group, 60 mg/kg): more than 90%
percentage of total urine excretion excreted daily ([1]; 0–1 days, 60 mg/kg with biliary drainage group, listed as β-Amanitin, 60 mg/kg): 91.4%
Total (accumulated) amount excreted in urine [1, 7]: 0.0055 mg
percentage of total urine excretion, Total [1, 7]: 100%
Total (accumulated) amount excreted in urine [1, 8]: 0.0068 mg
percentage of total urine excretion, Total [1, 8]: 100%
time within which toxin was detected in urine [1, 7]: two
time within which toxin was detected in urine [1, 8]: two
detection rate of peptide toxins in urine [1, 9]: 50%
detection rate of peptide toxins in urine [1, 10]: 83%
daily amount excreted in urine [1, 11]: 0.0005 mg
percentage of total urine excretion excreted daily [1, 11]: 6.1%
daily amount excreted in urine [1, 12]: 0.0003 mg
percentage of total urine excretion excreted daily [1, 12]: 8.6%
detection rate of peptide toxins in urine [1, 13]: 0%
toxin content in urine ([1]; 2-3d, 20 mg/kg with biliary drainage group, mean ± SD): 0 µg/L
detection rate of peptide toxins in urine [1, 14]: 0%
toxin content in urine ([1]; 2-3d, 60 mg/kg with biliary drainage group, mean ± SD): 0 µg/L
daily amount excreted in urine [1, 15]: 0(0%) mg
percentage of total urine excretion excreted daily [1, 15]: 0(0%)
daily amount excreted in urine [1, 16]: 0(0%) mg
percentage of total urine excretion excreted daily [1, 16]: 0(0%)
detection rate of peptide toxins in urine [1, 17]: 0%
toxin content in urine [1, 17]: 0 µg/L
detection rate of peptide toxins in urine [1, 18]: 0%
toxin content in urine [1, 18]: 0 µg/L
daily amount excreted in urine [1, 19]: 0(0%) mg
percentage of total urine excretion excreted daily [1, 19]: 0(0%)
daily amount excreted in urine [1, 20]: 0(0%) mg
percentage of total urine excretion excreted daily [1, 20]: 0(0%)
share of total urine excretion in the 0–2-day urine ([1]; beagles with biliary drainage, both dose groups): more than 95%
detection rate of peptide toxins in bile [2, 3]: 50%
detection rate of peptide toxins in bile [2, 4]: 83%
daily amount excreted in bile [2, 5]: 0.00014 mg
percentage of total bile excretion excreted daily [2, 5]: 100%
daily amount excreted in bile [2, 6]: 0.00122 mg
percentage of total bile excretion excreted daily [2, 6]: 100%
Accumulated amounts excreted in bile [2, 7]: 0.00014 mg
percentage of total bile excretion, Accumulated amounts [2, 7]: 100%
percentage of total bile excretion, Accumulated amounts [2, 8]: 100%
Accumulated amounts excreted in bile ([2]; 60 mg/kg with biliary drainage group, 60 mg/kg): 0.0012 mg
Accumulated amounts excreted in bile ([2]; 60 mg/kg with biliary drainage group, listed as β-Amanitin, 60 mg/kg): 0.00122 mg
ratio of peptide toxins in bile to excretion in urine and bile [2, 7]: less than 10%
ratio of peptide toxins in bile to excretion in urine and bile ([2]; 20 mg/kg with biliary drainage group, listed as β-Amanitin): 5.7 ± 8.5%
ratio of peptide toxins in bile to excretion in urine and bile [2, 8]: less than 20%
ratio of peptide toxins in bile to excretion in urine and bile ([2]; 60 mg/kg with biliary drainage group, listed as β-Amanitin): 15.4 ± 10.6%
detection rate of peptide toxins in bile [2, 9]: 0%
toxin concentration in bile [2, 9]: 0 µg/L
detection rate of peptide toxins in bile [2, 10]: 0%
toxin concentration in bile [2, 10]: 0 µg/L
daily amount excreted in bile [2, 11]: 0(0%) mg
percentage of total bile excretion excreted daily [2, 11]: 0(0%)
daily amount excreted in bile [2, 12]: 0(0%) mg
percentage of total bile excretion excreted daily [2, 12]: 0(0%)
detection rate of peptide toxins in bile [2, 13]: 0%
toxin concentration in bile [2, 13]: 0 µg/L
detection rate of peptide toxins in bile [2, 14]: 0%
toxin concentration in bile [2, 14]: 0 µg/L
daily amount excreted in bile [2, 15]: 0(0%) mg
percentage of total bile excretion excreted daily [2, 15]: 0(0%)
daily amount excreted in bile [2, 16]: 0(0%) mg
percentage of total bile excretion excreted daily [2, 16]: 0(0%)
detection rate of peptide toxins in bile [2, 17]: 0%
toxin concentration in bile [2, 17]: 0 µg/L
detection rate of peptide toxins in bile [2, 18]: 0%
toxin concentration in bile [2, 18]: 0 µg/L
daily amount excreted in bile [2, 19]: 0(0%) mg
percentage of total bile excretion excreted daily [2, 19]: 0(0%)
daily amount excreted in bile [2, 20]: 0(0%) mg
percentage of total bile excretion excreted daily [2, 20]: 0(0%)
